Data as given in the supplement of paper PMC10307832.

How the values were obtained:
Assay in all cases: relative viability (nuclei count vs DMSO), 5 days (fraction); higher = more cells survive
[1] = compound: Cc1ccc(NC(=O)c2ccc(CN3CCN(C)CC3)cc2)cc1Nc1nccc(-c2cccnc2)n1 [Imatinib] + O=C(CCCCCCC(=O)Nc1ccccc1)NO [Vorinostat] (partner 1 µM)
How it was run: (§1)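 Lung cancer cell lines in 1536-well plates were dosed by pin tool the day after seeding, either with one drug alone or with a fixed anchor-drug dose plus five library-drug doses (not always all listed) in √10 steps. After 5 days, cells were fixed and their nuclei stained in one step (final 0.05% Triton X-100, 1% formaldehyde, 1 ug/ml Hoechst), then counted on 4× images. Relative viability is the nuclei count in treated wells divided by that in vehicle wells. Values are medians of duplicate plates.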

[2] = compound: Cc1ccc(NC(=O)c2ccc(CN3CCN(C)CC3)cc2)cc1Nc1nccc(-c2cccnc2)n1 [Imatinib] + Nc1ncn([C@H]2C[C@H](O)[C@@H](CO)O2)c(=O)n1 [Decitabine] (partner 2 µM)
How it was run: as §1

[3] = compound: Cc1ccc(NC(=O)c2ccc(CN3CCN(C)CC3)cc2)cc1Nc1nccc(-c2cccnc2)n1 [Imatinib] + N=C(N)NC(=N)NCCc1ccccc1 [Phenformin] (partner 250 µM)
How it was run: as §1

[4] = compound: Cc1ccc(NC(=O)c2ccc(CN3CCN(C)CC3)cc2)cc1Nc1nccc(-c2cccnc2)n1 [Imatinib] + O=C(c1cc(Cc2n[nH]c(=O)c3ccccc23)ccc1F)N1CCN(C(=O)C2CC2)CC1 [Olaparib] (partner 8 µM)
How it was run: as §1

| Cell Line | relative viability ([1]; first compound 0.02 µM) | relative viability ([1]; first compound 0.06325 µM) | relative viability ([1]; first compound 0.2 µM) | relative viability ([1]; first compound 0.6325 µM) | relative viability ([1]; first compound 2 µM) | relative viability ([2]; first compound 0.02 µM) | relative viability ([2]; first compound 0.06325 µM) | relative viability ([2]; first compound 0.2 µM) | relative viability ([2]; first compound 0.6325 µM) | relative viability ([2]; first compound 2 µM) | relative viability ([3]; first compound 0.02 µM) | relative viability ([3]; first compound 0.06325 µM) | relative viability ([3]; first compound 0.2 µM) | relative viability ([3]; first compound 0.6325 µM) | relative viability ([3]; first compound 2 µM) | relative viability ([4]; first compound 0.02 µM) | relative viability ([4]; first compound 0.06325 µM) | relative viability ([4]; first compound 0.2 µM) | relative viability ([4]; first compound 0.6325 µM) | relative viability ([4]; first compound 2 µM) |
| --- | --- | --- | --- | --- | --- | --- | --- | --- | --- | --- | --- | --- | --- | --- | --- | --- | --- | --- | --- | --- |
| NCI-H1993 | 0.608 | 0.581 | 0.737 | 0.688 | 0.743 | 0.629 | 0.718 | 0.662 | 0.643 | 0.528 | 0.56 | 0.506 | 0.519 | 0.485 | 0.52 | 1.15 | 1.04 | 1.16 | 0.968 | 0.983 |
| NCI-H2009 | 0.805 | 0.646 | 0.554 | 0.794 | 0.758 | 0.434 | 0.346 | 0.346 | 0.425 | 0.363 | 0.518 | – | 0.485 | 0.445 | 0.383 | 0.692 | 0.882 | 0.796 | 0.671 | 0.661 |
| NCI-H2023 | 0.846 | 0.376 | 0.615 | – | 0.614 | 0.228 | 0.252 | 0.24 | 0.22 | 0.223 | 0.503 | 0.391 | 0.356 | 0.341 | 0.342 | 0.552 | 0.472 | 0.45 | 0.62 | 0.408 |
| NCI-H2085 | 0.755 | 0.683 | 0.772 | 0.743 | 0.768 | 0.529 | 0.556 | 0.513 | 0.61 | 0.527 | 0.867 | 0.694 | 0.748 | 0.752 | 0.704 | 0.765 | 0.759 | 0.825 | 0.784 | 0.742 |
| NCI-H2087 | 0.806 | – | 0.787 | 0.716 | – | 0.291 | – | 0.251 | 0.283 | – | 0.478 | – | 0.478 | 0.548 | 0.535 | 0.63 | – | 0.619 | 0.595 | – |
| NCI-H2126 | 0.702 | 0.582 | 0.789 | 0.724 | 0.818 | 0.545 | 0.522 | 0.634 | 0.58 | 0.538 | 0.514 | – | 0.57 | – | 0.501 | 0.892 | 0.742 | 0.92 | 0.985 | 0.924 |
| NCI-H2170 | 0.972 | 0.845 | 0.834 | 0.775 | 0.792 | 0.463 | 0.492 | 0.486 | 0.454 | 0.458 | 0.448 | 0.414 | 0.406 | 0.361 | 0.301 | 0.635 | 0.585 | 0.663 | 0.69 | 0.578 |
| NCI-H2342 | 0.766 | 0.789 | 0.772 | 0.865 | 0.745 | 0.745 | 0.713 | 0.779 | 0.679 | 0.71 | 0.633 | 0.57 | 0.587 | 0.573 | 0.561 | 0.44 | 0.404 | 0.466 | 0.473 | 0.426 |
| NCI-H2347 | 0.568 | – | 0.585 | 0.552 | 0.569 | 0.58 | – | 0.653 | 0.615 | 0.632 | 0.381 | 0.376 | 0.386 | 0.307 | 0.381 | 0.551 | – | 0.614 | 0.587 | 0.479 |
| NCI-H2405 | 1.06 | – | 1.18 | 0.942 | 0.961 | 0.707 | 0.636 | 0.848 | 0.724 | 0.722 | 0.366 | – | 0.341 | 0.329 | 0.333 | 0.933 | 0.947 | 0.919 | 0.875 | 0.922 |
| NCI-H3122 | 1.13 | 1.01 | 1.08 | – | 1.02 | 0.44 | 0.467 | 0.441 | 0.439 | 0.375 | 0.394 | 0.38 | 0.366 | – | 0.357 | 0.71 | 0.618 | 0.701 | 0.693 | 0.66 |
| PC-3 [JPC-3] | 0.882 | – | – | 0.899 | 0.727 | 0.861 | – | – | 0.776 | 0.84 | 0.474 | – | 0.485 | 0.454 | 0.414 | 1.22 | – | – | 1.18 | 1.08 |
| PC-14 | 0.902 | 0.472 | 0.8 | 0.56 | 0.791 | 0.253 | 0.244 | 0.249 | 0.199 | 0.208 | 0.626 | 0.802 | 0.586 | 0.374 | 0.656 | 0.274 | 0.229 | 0.357 | 0.221 | 0.244 |
| RERF-LC-KJ | 0.698 | 0.535 | – | 0.662 | 0.683 | 0.755 | 0.558 | 0.655 | – | 0.754 | 0.49 | 0.472 | 0.432 | 0.407 | 0.428 | 1.03 | 0.933 | 1.1 | – | 0.898 |
| SK-LU-1 | 0.87 | 0.832 | 0.798 | 0.793 | 0.748 | 0.686 | 0.543 | 0.588 | 0.598 | 0.645 | 0.56 | 0.499 | 0.499 | 0.472 | 0.475 | 0.379 | 0.457 | 0.462 | – | – |
| SK-MES-1 | – | 1.37 | 1.29 | – | 1.09 | 0.379 | 0.412 | 0.413 | 0.417 | 0.334 | 0.72 | 0.686 | 0.725 | 0.619 | 0.577 | 0.778 | 0.742 | 0.92 | 0.684 | 0.711 |
| SW 900 | 0.615 | 0.564 | 0.538 | 0.654 | 0.409 | 0.37 | 0.467 | 0.499 | 0.468 | 0.411 | 0.57 | 0.474 | 0.821 | 0.578 | 0.499 | 0.909 | 1.08 | 1.05 | 0.711 | 0.731 |
| SW 1573 | 0.802 | 0.392 | 0.973 | 0.9 | 0.709 | 0.646 | 0.4 | 0.575 | 0.471 | 0.437 | 0.325 | 0.365 | 0.361 | 0.352 | 0.335 | 0.62 | 0.704 | 0.425 | 0.485 | 0.559 |
